Measurements: ChEMBL document CHEMBL3045530, “Synthesis, antimycobacterial, antiviral, antimicrobial activities, and QSAR studies of isonicotinic acid-1-(substituted phenyl)-ethylidene/cycloheptylidene hydrazides” (Med Chem Res, 2012)
≈ marks a conversion by molar mass, not a printed value.

How the values were obtained:
HEL = assay: Cytostatic against Homo sapiens (human) HEL cells assessed as alteration in cell morphology by microscopy; assay type: ADME, cell-based
[1] = Cytotoxicity against Chlorocebus aethiops (African green monkey) Vero cells assessed as alteration in cell morphology by microscopy; assay type: cell-based; conditions: chlorocebus sabaeus, read-out: MTC
Punta Toro virus = assay: Antiviral activity against Punta Toro virus infected Vero cells assessed as inhibition of virus-induced cytopathicity; assay type: functional, organism-based
Coxsackievirus B4 [2] = assay: Antiviral activity against Human coxsackievirus B4 infected Vero cells assessed as inhibition of virus-induced cytopathicity; assay type: functional, organism-based; conditions: Enterovirus B
Sindbis virus = assay: Antiviral activity against Sindbis virus infected Vero cells assessed as inhibition of virus-induced cytopathicity; assay type: functional, organism-based
[3] = system: Mammalian orthoreovirus 1; assay: Antiviral activity against Mammalian orthoreovirus 1 infected Vero cells assessed as inhibition of virus-induced cytopathicity by microscopy; assay type: functional, organism-based; conditions: Mammalian orthoreovirus 1, Vero
Human respirovirus 3 = assay: Antiviral activity against Human parainfluenza virus 3 infected Vero cells assessed as inhibition of virus-induced cytopathicity by microscopy; assay type: functional, organism-based; conditions: Human respirovirus 3, Vero
[4] = Cytotoxicity against Homo sapiens (human) HeLa cells assessed as alteration in cell morphology by microscopy; assay type: cell-based; conditions: read-out: MTC
[5] = system: Respiratory syncytial virus; assay: Antiviral activity against Respiratory syncytial virus infected human HeLa cells assessed as inhibition of virus-induced cytopathicity by microscopy; assay type: functional, organism-based
Coxsackievirus B4 [6] = assay: Antiviral activity against Human coxsackievirus B4 infected human HeLa cells assessed as inhibition of virus-induced cytopathicity by microscopy; assay type: functional, organism-based; conditions: Enterovirus B
[7] = system: Vesicular stomatitis virus; assay: Antiviral activity against Vesicular stomatitis virus infected human HeLa cells assessed as inhibition of virus-induced cytopathicity by microscopy; assay type: functional, organism-based
[8] = Cytotoxicity against Homo sapiens (human) HEL cells assessed as alteration in cell morphology by microscopy; assay type: cell-based; conditions: for MCC: read-out: MTC
[9] = system: Human herpesvirus 3 strain Oka vaccine; assay: Antiviral activity against Human herpesvirus 3 strain Oka vaccine OKA 07-1 (Varicella zoster virus ) infected in human HEL cells assessed as inhibition of virus-induced cytopathicity; assay type: functional, organism-based; conditions: Human alphaherpesvirus 3, HEL
[10] = system: Human herpesvirus 5 strain AD169; assay: Antiviral activity against Human herpesvirus 5 strain AD169 Davis infected human HEL cells assessed as inhibition of virus-induced cytopathicity by microscopy; assay type: functional, organism-based; conditions: Human betaherpesvirus 5, Davis
Aspergillus niger = assay: Antimicrobial activity against Aspergillus niger after 7 days by tube dilution method; assay type: functional
Candida albicans = assay: Antimicrobial activity against Candida albicans after 48 hr by tube dilution method; assay type: functional
Escherichia coli = assay: Antimicrobial activity against Escherichia coli after 24 hr by tube dilution method; assay type: functional
Staphylococcus aureus = assay: Antimicrobial activity against Staphylococcus aureus after 24 hr by tube dilution method; assay type: functional
Bacillus subtilis = assay: Antimicrobial activity against Bacillus subtilis after 24 hr by tube dilution method; assay type: functional
Human alphaherpesvirus 1 [11] = assay: Antiviral activity against TK(-) aciclovir-resistant Human herpesvirus 1 strain KOS infected in human HEL cells assessed as inhibition of virus-induced cytopathicity; assay type: functional, organism-based; conditions: Human alphaherpesvirus 1, KOS
Human alphaherpesvirus 2 = assay: Antiviral activity against Human herpesvirus 2 strain G infected human HEL cells assessed as inhibition of virus-induced cytopathicity by microscopy; assay type: functional, organism-based; conditions: Human alphaherpesvirus 2, strain G
Vaccinia virus = assay: Antiviral activity against Vaccinia virus infected human HEL cells assessed as inhibition of virus-induced cytopathicity by microscopy; assay type: functional, organism-based; conditions: Orthopoxvirus vaccinia
Human alphaherpesvirus 1 [12] = assay: Antiviral activity against Human herpesvirus 1 strain KOS infected human HEL cells assessed as inhibition of virus-induced cytopathicity by microscopy by microscopy; assay type: functional, organism-based; conditions: Human alphaherpesvirus 1, KOS
[13] = Cytotoxicity against Homo sapiens (human) MT4 cells after 4 days by MTT assay; assay type: cell-based
[14] = system: Human immunodeficiency virus 2; assay: Antiviral activity against Human immunodeficiency virus type 2 (ISOLATE ROD) infected MT4 cells assessed as inhibition of virus-induced cytopathic effect after 4 days by MTT assay; assay type: functional, organism-based; conditions: Human immunodeficiency virus 2, ISOLATE ROD, MT4, 96 h
[15] = system: Human immunodeficiency virus 1; assay: Antiviral activity against Human immunodeficiency virus 1 IIIB infected MT4 cells assessed as inhibition of virus-induced cytopathic effect after 4 days by MTT assay; assay type: functional, organism-based; conditions: MT4, 96 h

C/C(=N\NC(=O)c1ccncc1)c1ccc([N+](=O)[O-])cc1
Activity (HEL): Toxic
MCC [1]: 100 µg/mL
EC50 (Punta Toro virus): > 20 µg/mL
EC50 (Coxsackievirus B4 [2]): > 20 µg/mL
EC50 (Sindbis virus): > 20 µg/mL
EC50 [3]: > 20 µg/mL
EC50 (Human respirovirus 3): > 20 µg/mL
MCC [4]: 100 µg/mL
EC50 [5]: > 20 µg/mL
EC50 (Coxsackievirus B4 [6]): > 20 µg/mL
EC50 [7]: > 20 µg/mL
CC50 [8]: 54 µg/mL (≈ 190 µM)
MCC [8]: > 100 µg/mL
EC50 [9]: > 20 µg/mL
EC50 [10]: > 20 µg/mL
-logMIC (Aspergillus niger): 2.36
-logMIC (Candida albicans): 2.36
-logMIC (Escherichia coli): 2.36
-logMIC (Staphylococcus aureus): 2.06
-logMIC (Bacillus subtilis): 2.06
EC50 (Human alphaherpesvirus 1 [11]): > 100 µg/mL
EC50 (Human alphaherpesvirus 2): > 100 µg/mL
EC50 (Vaccinia virus): > 100 µg/mL
EC50 (Human alphaherpesvirus 1 [12]): > 100 µg/mL
CC50 at 96 h [13]: 77 µg/mL (≈ 271 µM)
EC50 [14]: > 77 µg/mL
EC50 [15]: > 77 µg/mL

COc1ccc(/C(C)=N/NC(=O)c2ccncc2)c(OC)c1
Activity (HEL): Toxic
MCC [1]: 100 µg/mL
EC50 (Punta Toro virus): > 20 µg/mL
EC50 (Coxsackievirus B4 [2]): > 20 µg/mL
EC50 (Sindbis virus): > 20 µg/mL
EC50 [3]: > 20 µg/mL
EC50 (Human respirovirus 3): > 20 µg/mL
MCC [4]: 20 µg/mL
EC50 [5]: > 4 µg/mL
EC50 (Coxsackievirus B4 [6]): > 4 µg/mL
EC50 [7]: > 4 µg/mL
CC50 [8]: 10 µg/mL (≈ 33.4 µM)
MCC [8]: > 100 µg/mL
EC50 [9]: > 20 µg/mL
EC50 [10]: > 20 µg/mL
-logMIC (Aspergillus niger): 2.38
-logMIC (Candida albicans): 2.68
-logMIC (Escherichia coli): 2.08
-logMIC (Staphylococcus aureus): 2.38
-logMIC (Bacillus subtilis): 2.38
EC50 (Human alphaherpesvirus 1 [11]): > 100 µg/mL
EC50 (Human alphaherpesvirus 2): > 100 µg/mL
EC50 (Vaccinia virus): > 100 µg/mL
EC50 (Human alphaherpesvirus 1 [12]): > 100 µg/mL
CC50 at 96 h [13]: 12 µg/mL (≈ 40.1 µM)
EC50 [14]: > 12 µg/mL
EC50 [15]: > 12 µg/mL

C/C(=N\NC(=O)c1ccncc1)c1ccc(Br)cc1
Activity (HEL): Toxic
MCC [1]: ≥ 20 µg/mL
EC50 (Punta Toro virus): > 20 µg/mL
EC50 (Coxsackievirus B4 [2]): > 20 µg/mL
EC50 (Sindbis virus): > 20 µg/mL
EC50 [3]: > 20 µg/mL
EC50 (Human respirovirus 3): > 20 µg/mL
MCC [4]: 20 µg/mL
EC50 [5]: > 4 µg/mL
EC50 (Coxsackievirus B4 [6]): > 4 µg/mL
EC50 [7]: > 4 µg/mL
CC50 [8]: 51 µg/mL (≈ 160 µM)
MCC [8]: ≥ 20 µg/mL
EC50 [9]: > 20 µg/mL
EC50 [10]: > 20 µg/mL
-logMIC (Aspergillus niger): 2.41
-logMIC (Candida albicans): 2.41
-logMIC (Escherichia coli): 2.41
-logMIC (Staphylococcus aureus): 2.1
-logMIC (Bacillus subtilis): 2.1
EC50 (Human alphaherpesvirus 1 [11]): > 20 µg/mL
EC50 (Human alphaherpesvirus 2): > 20 µg/mL
EC50 (Vaccinia virus): > 20 µg/mL
EC50 (Human alphaherpesvirus 1 [12]): > 20 µg/mL
CC50 at 96 h [13]: 43 µg/mL (≈ 135 µM)
EC50 [14]: > 43 µg/mL
EC50 [15]: > 43 µg/mL

C/C(=N\NC(=O)c1ccncc1)c1ccc(Cl)cc1Cl
Activity (HEL): Toxic
MCC [1]: 100 µg/mL
EC50 (Punta Toro virus): > 20 µg/mL
EC50 (Coxsackievirus B4 [2]): > 20 µg/mL
EC50 (Sindbis virus): > 20 µg/mL
EC50 [3]: > 20 µg/mL
EC50 (Human respirovirus 3): > 20 µg/mL
MCC [4]: 100 µg/mL
EC50 [5]: > 20 µg/mL
EC50 (Coxsackievirus B4 [6]): > 20 µg/mL
EC50 [7]: > 20 µg/mL
CC50 [8]: 11 µg/mL (≈ 35.7 µM)
MCC [8]: > 100 µg/mL
EC50 [9]: > 20 µg/mL
EC50 [10]: > 20 µg/mL
-logMIC (Aspergillus niger): 2.39
-logMIC (Candida albicans): 2.69
-logMIC (Escherichia coli): 2.39
-logMIC (Staphylococcus aureus): 2.09
-logMIC (Bacillus subtilis): 2.09
EC50 (Human alphaherpesvirus 1 [11]): > 100 µg/mL
EC50 (Human alphaherpesvirus 2): > 100 µg/mL
EC50 (Vaccinia virus): > 100 µg/mL
EC50 (Human alphaherpesvirus 1 [12]): > 100 µg/mL
CC50 at 96 h [13]: 38 µg/mL (≈ 123 µM)
EC50 [14]: > 38 µg/mL
EC50 [15]: > 38 µg/mL

C/C(=N\NC(=O)c1ccncc1)c1cccc([N+](=O)[O-])c1
Activity (HEL): Toxic
MCC [1]: 20 µg/mL
EC50 (Punta Toro virus): > 4 µg/mL
EC50 (Coxsackievirus B4 [2]): > 4 µg/mL
EC50 (Sindbis virus): > 4 µg/mL
EC50 [3]: > 4 µg/mL
EC50 (Human respirovirus 3): > 4 µg/mL
MCC [4]: 20 µg/mL
EC50 [5]: > 4 µg/mL
EC50 (Coxsackievirus B4 [6]): > 4 µg/mL
EC50 [7]: > 4 µg/mL
CC50 [8]: 13 µg/mL (≈ 45.7 µM)
MCC [8]: 100 µg/mL
EC50 [9]: > 4 µg/mL
EC50 [10]: > 20 µg/mL
-logMIC (Aspergillus niger): 2.36
-logMIC (Candida albicans): 2.36
-logMIC (Escherichia coli): 2.36
-logMIC (Staphylococcus aureus): 2.06
-logMIC (Bacillus subtilis): 2.06
EC50 (Human alphaherpesvirus 1 [11]): > 20 µg/mL
EC50 (Human alphaherpesvirus 2): > 20 µg/mL
EC50 (Vaccinia virus): > 20 µg/mL
EC50 (Human alphaherpesvirus 1 [12]): > 20 µg/mL
CC50 at 96 h [13]: 63 µg/mL (≈ 222 µM)
EC50 [14]: > 63 µg/mL
EC50 [15]: > 63 µg/mL

COc1ccc(OC)c(/C(C)=N/NC(=O)c2ccncc2)c1
Activity (HEL): Toxic
MCC [1]: > 100 µg/mL
EC50 (Punta Toro virus): > 100 µg/mL
EC50 (Coxsackievirus B4 [2]): > 100 µg/mL
EC50 (Sindbis virus): > 100 µg/mL
EC50 [3]: > 100 µg/mL
EC50 (Human respirovirus 3): > 100 µg/mL
MCC [4]: > 100 µg/mL
EC50 [5]: > 100 µg/mL
EC50 (Coxsackievirus B4 [6]): > 100 µg/mL
EC50 [7]: > 100 µg/mL
CC50 [8]: 100 µg/mL (≈ 334 µM)
MCC [8]: > 100 µg/mL
EC50 [9]: > 100 µg/mL
EC50 [10]: > 100 µg/mL
-logMIC (Aspergillus niger): 2.38
-logMIC (Candida albicans): 2.38
-logMIC (Escherichia coli): 2.68
-logMIC (Staphylococcus aureus): 2.08
-logMIC (Bacillus subtilis): 2.08
EC50 (Human alphaherpesvirus 1 [11]): > 100 µg/mL
EC50 (Human alphaherpesvirus 2): > 100 µg/mL
EC50 (Vaccinia virus): > 100 µg/mL
EC50 (Human alphaherpesvirus 1 [12]): > 100 µg/mL
CC50 at 96 h [13]: 88 µg/mL (≈ 294 µM)
EC50 [14]: > 88 µg/mL
EC50 [15]: > 88 µg/mL

C/C(=N\NC(=O)c1ccncc1)c1ccccc1O
Activity (HEL): Toxic
MCC [1]: ≥ 4 µg/mL
EC50 (Punta Toro virus): > 4 µg/mL
EC50 (Coxsackievirus B4 [2]): > 4 µg/mL
EC50 (Sindbis virus): > 4 µg/mL
EC50 [3]: > 4 µg/mL
EC50 (Human respirovirus 3): > 4 µg/mL
MCC [4]: 1 µg/mL
EC50 [5]: > 0.2 µg/mL
EC50 (Coxsackievirus B4 [6]): > 0.2 µg/mL
EC50 [7]: > 0.2 µg/mL
CC50 [8]: 0.4 µg/mL (≈ 1.57 µM)
MCC [8]: 100 µg/mL
EC50 [9]: 1.8 µg/mL (≈ 7.05 µM)
EC50 [10]: > 0.8 µg/mL
-logMIC (Aspergillus niger): 2.31
-logMIC (Candida albicans): 2.61
-logMIC (Escherichia coli): 2.31
-logMIC (Staphylococcus aureus): 2.01
-logMIC (Bacillus subtilis): 2.01
EC50 (Human alphaherpesvirus 1 [11]): 4 µg/mL (≈ 15.7 µM)
EC50 (Human alphaherpesvirus 2): 1.3 µg/mL (≈ 5.09 µM)
EC50 (Vaccinia virus): 3.5 µg/mL (≈ 13.7 µM)
EC50 (Human alphaherpesvirus 1 [12]): 1.4 µg/mL (≈ 5.48 µM)
CC50 at 96 h [13]: 0.5 µg/mL (≈ 1.96 µM)
EC50 [14]: > 0.5 µg/mL
EC50 [15]: > 0.5 µg/mL
